Laboratory results: patent US12552775B2, “Compounds and uses thereof” (Foghorn Therapeutics Inc., priority 2020, dated 2026)

Assays:
[1] = target: T1, HiBit-BRM fusion protein (Homo sapiens, UniProt P51531); experiment: HiBiT-BRM cell-based degradation assay (Nano-Glo HiBiT Lytic Detection, 24 h); conditions: stable HeLa cell line expressing HiBiT-BRM, top dose 30 μM
T1 construct: expressed in transfected cells
How it was run: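 Stable HiBiT-BRM HeLa cells treated 24 h with 10-point 3-fold dilutions, top final dose 30 μM, in duplicate. Luminescence read after lytic LgBiT reagent. Percent degradation was normalised to DMSO (high control) and 2 μM reference BRM/BRG1 degrader (low control).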

[2] = target: T2, HiBit-BRG1 fusion protein (Homo sapiens, UniProt P51532); experiment: HiBiT-BRG1 cell-based degradation assay (Nano-Glo HiBiT Lytic Detection, 24 h); conditions: stable HeLa cell line expressing HiBit-BRG1 and LgBit, top dose 30 μM, read-out: BRG1 HiBit Degradation Maximum (%)
T2 construct: expressed in transfected cells
How it was run: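 HeLa cells stably expressing HiBiT-BRG1 plus LgBiT were treated with 10-point 3-fold compound dilutions (top 30 μM final) for 24 h. Lytic Nano-Glo HiBiT luminescence was read. % degradation was normalised between DMSO (high control) and 2 μM of a reference BRM/BRG1 degrader (low control).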

T1 sequence (P51531 whole entry, the tested form may be a part): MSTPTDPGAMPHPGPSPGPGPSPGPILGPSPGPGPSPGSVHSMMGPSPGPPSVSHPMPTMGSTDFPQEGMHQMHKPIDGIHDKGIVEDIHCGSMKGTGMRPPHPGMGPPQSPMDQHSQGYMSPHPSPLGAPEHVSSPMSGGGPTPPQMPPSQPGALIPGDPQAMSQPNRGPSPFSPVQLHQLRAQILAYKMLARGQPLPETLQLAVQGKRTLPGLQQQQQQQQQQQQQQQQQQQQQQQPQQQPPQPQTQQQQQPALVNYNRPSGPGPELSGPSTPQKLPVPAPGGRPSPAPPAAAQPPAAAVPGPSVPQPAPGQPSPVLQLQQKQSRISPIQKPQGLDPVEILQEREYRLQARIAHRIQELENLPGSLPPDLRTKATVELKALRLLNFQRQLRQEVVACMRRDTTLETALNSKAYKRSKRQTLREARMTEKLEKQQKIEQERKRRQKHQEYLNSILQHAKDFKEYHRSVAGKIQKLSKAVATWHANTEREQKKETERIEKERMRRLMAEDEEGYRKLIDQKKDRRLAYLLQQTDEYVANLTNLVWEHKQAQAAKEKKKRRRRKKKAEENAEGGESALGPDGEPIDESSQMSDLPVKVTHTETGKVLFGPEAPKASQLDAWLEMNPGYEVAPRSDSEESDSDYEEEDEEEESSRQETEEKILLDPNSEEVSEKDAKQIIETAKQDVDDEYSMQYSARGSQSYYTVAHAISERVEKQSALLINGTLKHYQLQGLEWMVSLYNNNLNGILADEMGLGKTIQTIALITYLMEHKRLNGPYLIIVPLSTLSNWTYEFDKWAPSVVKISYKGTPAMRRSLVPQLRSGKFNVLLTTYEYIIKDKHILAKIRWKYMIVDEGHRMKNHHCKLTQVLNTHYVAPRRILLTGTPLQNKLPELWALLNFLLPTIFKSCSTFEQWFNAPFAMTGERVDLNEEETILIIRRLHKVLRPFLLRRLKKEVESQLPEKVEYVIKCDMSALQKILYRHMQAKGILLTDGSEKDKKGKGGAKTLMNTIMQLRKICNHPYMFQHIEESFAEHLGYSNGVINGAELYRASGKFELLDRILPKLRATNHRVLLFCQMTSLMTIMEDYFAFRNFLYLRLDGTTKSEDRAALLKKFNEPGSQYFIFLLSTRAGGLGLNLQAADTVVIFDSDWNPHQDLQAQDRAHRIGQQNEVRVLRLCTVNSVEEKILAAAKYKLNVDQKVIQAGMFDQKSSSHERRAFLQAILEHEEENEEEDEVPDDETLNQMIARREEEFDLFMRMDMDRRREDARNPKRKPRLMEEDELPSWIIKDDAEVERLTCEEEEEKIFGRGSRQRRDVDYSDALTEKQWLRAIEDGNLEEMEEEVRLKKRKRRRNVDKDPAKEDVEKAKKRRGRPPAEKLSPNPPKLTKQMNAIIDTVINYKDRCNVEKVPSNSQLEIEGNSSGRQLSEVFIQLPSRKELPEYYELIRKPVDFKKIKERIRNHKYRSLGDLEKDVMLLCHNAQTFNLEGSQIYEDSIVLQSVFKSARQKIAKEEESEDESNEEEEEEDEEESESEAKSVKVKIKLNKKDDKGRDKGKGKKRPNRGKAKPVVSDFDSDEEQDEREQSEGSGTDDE
T2 sequence (P51532 whole entry, the tested form may be a part): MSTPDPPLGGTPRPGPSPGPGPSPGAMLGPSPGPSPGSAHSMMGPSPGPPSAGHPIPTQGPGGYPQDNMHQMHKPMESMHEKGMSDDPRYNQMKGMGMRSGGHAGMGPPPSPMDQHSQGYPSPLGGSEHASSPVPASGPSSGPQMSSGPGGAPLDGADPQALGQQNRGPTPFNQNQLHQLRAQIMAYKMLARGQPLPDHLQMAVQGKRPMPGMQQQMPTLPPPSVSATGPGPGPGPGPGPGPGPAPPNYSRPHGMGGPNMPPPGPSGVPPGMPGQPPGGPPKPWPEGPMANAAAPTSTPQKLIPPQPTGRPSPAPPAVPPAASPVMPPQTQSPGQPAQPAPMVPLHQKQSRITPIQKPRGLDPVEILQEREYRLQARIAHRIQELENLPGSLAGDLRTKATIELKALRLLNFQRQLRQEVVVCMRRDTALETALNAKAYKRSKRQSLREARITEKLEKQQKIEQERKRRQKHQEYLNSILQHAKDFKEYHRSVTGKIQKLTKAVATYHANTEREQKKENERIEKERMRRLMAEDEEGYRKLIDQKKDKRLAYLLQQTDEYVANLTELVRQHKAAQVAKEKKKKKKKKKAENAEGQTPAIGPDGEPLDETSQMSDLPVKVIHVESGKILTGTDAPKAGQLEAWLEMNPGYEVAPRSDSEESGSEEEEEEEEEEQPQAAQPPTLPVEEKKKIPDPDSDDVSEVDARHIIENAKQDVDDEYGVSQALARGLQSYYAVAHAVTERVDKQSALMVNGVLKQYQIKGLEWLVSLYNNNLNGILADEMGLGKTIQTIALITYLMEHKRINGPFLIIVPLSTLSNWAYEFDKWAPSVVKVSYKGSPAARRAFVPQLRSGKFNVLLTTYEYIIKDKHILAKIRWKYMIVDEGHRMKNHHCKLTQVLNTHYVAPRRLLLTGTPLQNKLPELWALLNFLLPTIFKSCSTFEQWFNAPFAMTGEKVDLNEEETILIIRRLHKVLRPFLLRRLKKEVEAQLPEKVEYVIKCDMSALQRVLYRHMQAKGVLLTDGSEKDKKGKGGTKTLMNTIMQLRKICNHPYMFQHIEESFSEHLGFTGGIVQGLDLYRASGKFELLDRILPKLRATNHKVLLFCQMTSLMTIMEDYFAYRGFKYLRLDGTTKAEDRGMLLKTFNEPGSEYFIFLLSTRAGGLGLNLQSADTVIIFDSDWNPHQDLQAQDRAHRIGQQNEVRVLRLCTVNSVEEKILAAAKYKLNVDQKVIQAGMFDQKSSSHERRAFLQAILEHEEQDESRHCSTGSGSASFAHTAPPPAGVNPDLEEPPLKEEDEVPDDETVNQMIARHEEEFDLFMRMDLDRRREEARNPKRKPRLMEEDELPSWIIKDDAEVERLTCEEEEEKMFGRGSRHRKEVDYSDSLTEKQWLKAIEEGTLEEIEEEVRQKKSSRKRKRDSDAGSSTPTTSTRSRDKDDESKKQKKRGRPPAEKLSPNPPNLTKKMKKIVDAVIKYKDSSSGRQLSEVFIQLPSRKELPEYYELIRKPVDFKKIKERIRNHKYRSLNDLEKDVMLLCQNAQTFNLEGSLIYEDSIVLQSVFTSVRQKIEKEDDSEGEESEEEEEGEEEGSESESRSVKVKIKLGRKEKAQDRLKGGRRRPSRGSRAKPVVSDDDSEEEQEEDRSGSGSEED

Dmax [2] [%]	Compound	BRM HiBit Degradation Maximum (%) [1]
> 50	Nc1nnc(-c2ccccc2O)cc1OCC12CC(C(=O)NCCOC3CN(c4ccc5c(c4)C(=O)N(C4CCC(=O)NC4=O)C5=O)C3)(C1)C2 (stereo not shown) [Compound 81, 3-(((3-amino-6-(2-hydroxyphenyl)pyridazin-4-yl)oxy)methyl)-N-(2-((1-(2-(2,6-dioxopiperidin-3-yl)-1,3-dioxoisoindolin-5-yl)azetidin-3-yl)oxy)ethyl)bicyclo[1.1.1]pentane-1-carboxamide]	B (“B” indicates maximum degradation ≥ 50%)
< 50	Nc1nnc(-c2ccccc2O)cc1OCC12CC(C(=O)NCCOCCOCCOCCNC(=O)COc3cccc4c3C(=O)N(C3CCC(=O)NC3=O)C4=O)(C1)C2 (stereo not shown) [Compound 92, 3-(((3-amino-6-(2-hydroxyphenyl)pyridazin-4-yl)oxy)methyl)-N-(1-((2-(2,6-dioxopiperidin-3-yl)-1,3-dioxoisoindolin-4-yl)oxy)-2-oxo-6,9,12-trioxa-3-azatetradecan-14-yl)bicyclo[1.1.1]pentane-1-carboxamide]	C (“C” indicates maximum degradation < 50%)
< 50	Cc1nc2cccc(NCCOCCOCCNC(=O)C34CC(COc5cc(-c6ccccc6O)nnc5N)(C3)C4)c2c(=O)n1C1CCC(=O)NC1=O (stereo not shown) [Compound 61, 3-(((3-amino-6-(2-hydroxyphenyl)pyridazin-4-yl)oxy)methyl)-N-(2-(2-(2-((3-(2,6-dioxopiperidin-3-yl)-2-methyl-4-oxo-3,4-dihydroquinazolin-5-yl)amino)ethoxy)ethoxy)ethyl)bicyclo[1.1.1]pentane-1-carboxamide]	C (“C” indicates maximum degradation < 50%)
> 50	Nc1nnc(-c2ccccc2O)cc1OCC12CC(C(=O)N3CCC(CCCCN4CCN(c5ccc6c(c5)C(=O)N(C5CCC(=O)NC5=O)C6=O)CC4)CC3)(C1)C2 (stereo not shown) [Compound 95, 5-(4-(4-(1-(3-(((3-amino-6-(2-hydroxyphenyl)pyridazin-4-yl)oxy)methyl)bicyclo[1.1.1]pentane-1-carbonyl)piperidin-4-yl)butyl)piperazin-1-yl)-2-(2,6-dioxopiperidin-3-yl)isoindoline-1,3-dione; formic acid]	B (“B” indicates maximum degradation ≥ 50%)
< 50	Nc1nnc(-c2ccccc2O)cc1OCC12CC(C(=O)NCCCCCCNc3ccc4c(c3)C(=O)N(C3CCC(=O)NC3=O)C4=O)(C1)C2 (stereo not shown) [Compound 64, 3-(((3-amino-6-(2-hydroxyphenyl)pyridazin-4-yl)oxy)methyl)-N-(6-((2-(2,6-dioxopiperidin-3-yl)-1,3-dioxoisoindolin-5-yl)amino)hexyl)bicyclo[1.1.1]pentane-1-carboxamide]	C (“C” indicates maximum degradation < 50%)
< 50	Nc1nnc(-c2ccccc2O)cc1OCC12CC(C(=O)NCCOCCOCCNC(=O)COc3cccc4c3C(=O)N(C3CCC(=O)NC3=O)C4=O)(C1)C2 (stereo not shown) [Compound 90, 3-(((3-amino-6-(2-hydroxyphenyl)pyridazin-4-yl)oxy)methyl)-N-(2-(2-(2-(2-((2-(2,6-dioxopiperidin-3-yl)-1,3-dioxoisoindolin-4-yl)oxy)acetamido)ethoxy)ethoxy)ethyl)bicyclo[1.1.1]pentane-1-carboxamide]	C (“C” indicates maximum degradation < 50%)
< 50	Nc1nnc(-c2ccccc2O)cc1OCC12CC(C(=O)NCCCCCNc3ccc4c(c3)C(=O)N(C3CCC(=O)NC3=O)C4=O)(C1)C2 (stereo not shown) [Compound 63, 3-(((3-amino-6-(2-hydroxyphenyl)pyridazin-4-yl)oxy)methyl)-N-(5-((2-(2,6-dioxopiperidin-3-yl)-1,3-dioxoisoindolin-5-yl)amino)pentyl)bicyclo[1.1.1]pentane-1-carboxamide; formic acid]	C (“C” indicates maximum degradation < 50%)
< 50	Cc1ncsc1-c1ccc(CNC(=O)[C@@H]2C[C@@H](O)CN2C(=O)[C@@H](NC(=O)CCCCCNC(=O)C23CC(COc4cc(-c5ccccc5O)nnc4N)(C2)C3)C(C)(C)C)cc1 [Compound 70, (2S,4R)-1-((S)-2-(6-(3-(((3-amino-6-(2-hydroxyphenyl)pyridazin-4-yl)oxy)methyl)bicyclo[1.1.1]pentane-1-carboxamido)hexanamido)-3,3-dimethylbutanoyl)-4-hydroxy-N-(4-(4-methylthiazol-5-yl)benzyl)pyrrolidine-2-carboxamide]	B (“B” indicates maximum degradation ≥ 50%)

The remaining lines, values behind:

Compound	Dmax [2] [%]	BRM HiBit Degradation Maximum (%) [1]
Nc1nnc(-c2ccccc2O)cc1OCC12CC(CNC(=O)CCCCCCCCNc3cccc4c3C(=O)N(C3CCC(=O)NC3=O)C4=O)(C1)C2 (stereo not shown) [Compound 7, N-[[3-([[3-amino-6-(2-hydroxyphenyl)pyridazin-4-yl]oxy]methyl)bicyclo[1.1.1]pentan-1-yl]methyl]-9-[[2-(2,6-dioxopiperidin-3-yl)-1,3-dioxoisoindol-4-yl]amino]nonanamide]	< 50	C (“C” indicates maximum degradation < 50%)
Nc1nnc(-c2ccccc2O)cc1OCC12CC(C(=O)N3CCC4(CC3)CC(Oc3ccc5c(c3)C(=O)N(C3CCC(=O)NC3=O)C5=O)C4)(C1)C2 (stereo not shown) [Compound 53, 5-((7-(3-(((3-amino-6-(2-hydroxyphenyl)pyridazin-4-yl)oxy)methyl)bicyclo[1.1.1]pentane-1-carbonyl)-7-azaspiro[3.5]nonan-2-yl)oxy)-2-(2,6-dioxopiperidin-3-yl)isoindoline-1,3-dione]	< 50	C (“C” indicates maximum degradation < 50%)
Cc1ncsc1-c1ccc(CNC(=O)[C@@H]2C[C@@H](O)CN2C(=O)[C@@H](NC(=O)CCCC(=O)NC23CC(CCOc4cc(-c5ccccc5O)nnc4N)(C2)C3)C(C)(C)C)cc1 [Compound 46, N1-(3-(2-((3-amino-6-(2-hydroxyphenyl)pyridazin-4-yl)oxy)ethyl)bicyclo[1.1.1]pentan-1-yl)-N5-((S)-1-((2S,4R)-4-hydroxy-2-((4-(4-methylthiazol-5-yl)benzyl)carbamoyl)pyrrolidin-1-yl)-3,3-dimethyl-1-oxobutan-2-yl)glutaramide]	< 50	B (“B” indicates maximum degradation ≥ 50%)
Nc1nnc(-c2ccccc2O)cc1OCCC12CC(NC(=O)CCOCCOCCNc3cccc4c3C(=O)N(C3CCC(=O)NC3=O)C4=O)(C1)C2 (stereo not shown) [Compound 27, N-[3-(2-[[3-amino-6-(2-hydroxyphenyl)pyridazin-4-yl]oxy]ethyl)bicyclo[1.1.1]pentan-1-yl]-3-[2-(2-[[2-(2,6-dioxopiperidin-3-yl)-1,3-dioxoisoindol-4-yl]amino]ethoxy)ethoxy]propanamide]	< 50	C (“C” indicates maximum degradation < 50%)
Nc1nnc(-c2ccccc2O)cc1OCCC12CC(NC(=O)CCCCCCCCCCNc3ccc4c(c3)C(=O)N(C3CCC(=O)NC3=O)C4=O)(C1)C2 (stereo not shown) [Compound 26, N-[3-(2-[[3-amino-6-(2-hydroxyphenyl)pyridazin-4-yl]oxy]ethyl)bicyclo[1.1.1]pentan-1-yl]-11-[[2-(2,6-dioxopiperidin-3-yl)-1,3-dioxoisoindol-5-yl]amino]undecanamide]	< 50	C (“C” indicates maximum degradation < 50%)
Cc1ncsc1-c1ccc(CNC(=O)[C@@H]2C[C@@H](O)CN2C(=O)[C@@H](NC(=O)CCCCCCCCCCC(=O)NC23CC(CCOc4cc(-c5ccccc5O)nnc4N)(C2)C3)C(C)(C)C)cc1 [Compound 47, N1-(3-(2-((3-amino-6-(2-hydroxyphenyl)pyridazin-4-yl)oxy)ethyl)bicyclo[1.1.1]pentan-1-yl)-N12-((S)-1-((2S,4R)-4-hydroxy-2-((4-(4-methylthiazol-5-yl)benzyl)carbamoyl)pyrrolidin-1-yl)-3,3-dimethyl-1-oxobutan-2-yl)dodecanediamide]	< 50	B (“B” indicates maximum degradation ≥ 50%)
Nc1nnc(-c2ccccc2O)cc1OCCC12CC(NC(=O)CCN3CC4(C3)CN(c3ccc5c(c3)C(=O)N(C3CCC(=O)NC3=O)C5=O)C4)(C1)C2 (stereo not shown) [Compound 34, N-(3-(2-((3-amino-6-(2-hydroxyphenyl)pyridazin-4-yl)oxy)ethyl)bicyclo[1.1.1]pentan-1-yl)-3-(6-(2-(2,6-dioxopiperidin-3-yl)-1,3-dioxoisoindolin-5-yl)-2,6-diazaspiro[3.3]heptan-2-yl)propanamide]	< 50	C (“C” indicates maximum degradation < 50%)
Nc1nnc(-c2ccccc2O)cc1OCC12CC(CNC(=O)CCCCCCCCCCNc3ccc4c(c3)C(=O)N(C3CCC(=O)NC3=O)C4=O)(C1)C2 (stereo not shown) [Compound 10, N-[[3-([[3-amino-6-(2-hydroxyphenyl)pyridazin-4-yl]oxy]methyl)bicyclo[1.1.1]pentan-1-yl]methyl]-11-[[2-(2,6-dioxopiperidin-3-yl)-1,3-dioxoisoindol-5-yl]amino]undecanamide]	< 50	C (“C” indicates maximum degradation < 50%)
Nc1nnc(-c2ccccc2O)cc1OCCC12CC(NC(=O)CCOCCOCCOc3cccc4c3C(=O)N(C3CCC(=O)NC3=O)C4=O)(C1)C2 (stereo not shown) [Compound 30, N-(3-(2-((3-amino-6-(2-hydroxyphenyl)pyridazin-4-yl)oxy)ethyl)bicyclo[1.1.1]pentan-1-yl)-3-(2-(2-((2-(2,6-dioxopiperidin-3-yl)-1,3-dioxoisoindolin-4-yl)oxy)ethoxy)ethoxy)propanamide]	< 50	C (“C” indicates maximum degradation < 50%)
